Where a name gives a salt, the structure may show the parent alone.
Columns and labels:
Assay type in all cases: physicochemical
[1] = Equilibrium solubility in various media (shaker water bath, HPLC analysis); details: for Solubility (mg/ml) ± SD: 24 hrs
Experimental: Equilibrium solubility of compound of formula (I) free base and compound of formula (I) fumarate were measured in various medium. Excess quantities of compound of formula (I) and compound of formula (I) fumarate were added to glass vials containing different medium. These vials were kept for shaking in shaker water bath at appropriate temperature (25° C. for water and 37° C. for buffers) at 200 rpm. The obtained preparations were filtered and analysed by means of HPLC.

[2] = Dynamic vapor sorption (DVS) moisture uptake study; details: at 90% RH, 25° C.
Experimental: The moisture uptake study of compound of present invention was performed with a DVS instrument (Q5000SA, TA instruments, New Castle, Delaware, USA) at 25° C. to evaluate the physical stability of compound of present invention against moisture or tendency to adsorb moisture. The instrument consisted of a microbalance housed inside a temperature-controlled chamber. The humidity was controlled via switching valves, which control the flow of a dry gas (nitrogen) through a humidification stage. Instrument was programmed for moisture sorption from 40 to 90% RH in 10% RH steps at 25±0.1° C. using an equilibrium condition. The equilibrium condition was set to <0.01% total mass change within 10 min and with a maximum dwell time of 60 min followed by desorption from 90% RH to 10% RH steps. The equilibrium condition for desorption was set to <0.01% total mass change within 10 min and with a maximum dwell time of 60 min.

[3] = Variable temperature X-ray diffraction (VT-XRD) physical stability; details: 25° C., 40° C. and 60° C.; isothermal hold of 60 min
Source text: An Anton Paar temperature-humidity chamber (THC) was used to collect in situ XRPD patterns as a function of humidity. The humidity was generated with an RH-200 manufactured by VTI Inc. and carried by a flow of nitrogen gas. The humidity and temperature was monitored by a HygroClip sensor manufactured by Rotronic located next to the specimen inside the THC. XRPD patterns were collected with a PANalytical X'Pert PRO MPD diffractometer in symmetric Bragg-Brentano reflection geometry. Isothermal hold of 60 min given at specified temperature. Heating rate was kept at 10° C./min. Approximately 200 mg sample used for VT-XRD analysis. Cu Kα radiation was produced using a long, fine-focus source operated at 45 kV and 40 mA. The incident beam was conditioned using a nickel filter, a 0.02-rad Soller slit, a 11.6-mm fixed incident beam mask, a fixed 0.76-mm ½° antiscatter slit, and a fixed 0.38-mm ¼° divergence slit. The diffracted beam was conditioned using a 5-mm antiscatter slit, a 0.04-rad Soller slit. The diffraction patterns were collected using a scanning position-sensitive detector (X'Celerator) located 240 mm from the sample. Data were collected and analyzed using Data Collector software v. 5.5.
VT-XRD analysis confirmed that compound of formula (I)-fumaric acid cocrystal remained stable and no solid form transformation/phase change occurred even at higher temperature conditions. […]

[4] = Variable humidity X-ray diffraction (VH-XRD) physical stability; details: 40% RH to 85% RH sorption then desorption to 40% RH, 1 hr at each RH level
Experimental: An Anton Paar TTK 450 stage was used to collect in situ XRPD patterns as a function of temperature. The sample was heated with a resistance heater located directly under the sample holder, and the temperature was monitored with a platinum-100 resistance sensor located in the specimen holder. The heater was powered and controlled by an Anton Paar TCU 100 interfaced with Data Collector. Approximately 200 mg sample used for VH-XRD analysis.
The compound of present invention was exposed to various humidity conditions. The sample, i.e., compound of formula (I) fumarate, was exposed from 40% RH to 85% RH followed by desorption cycle from 85% to 40% RH. The samples were equilibrated for 1 hr at each RH level (both sorption and desorption). […] See, FIG. 6B.

[5] = 6-month storage stability of solid form (XRPD, particle morphology); details: 6 months
[6] = pH 4.5 Acetate buffer USP, 37° C.
[7] = pH 5.8 Phosphate buffer USP, 37° C.
[8] = pH 6.8 Phosphate buffer USP, 37° C.

Row | SMILES | Solubility (mg/ml) ± SD ([1]; Purified water, 25° C.) [mg/mL] | solubility at 24 h ([1]; pH 2.8 acid phthalate buffer USP, 37 °C, pH 2.8, aqueous buffer, thermodynamic from solid, pH 2.8 Acid Phthalate buffer USP, 37° C., read-out: Solubility (mg/ml) ± SD) [mg/mL] | Solubility (mg/ml) ± SD [1, 6] [mg/mL] | Solubility (mg/ml) ± SD [1, 7] [mg/mL] | Solubility (mg/ml) ± SD [1, 8] [mg/mL] | Solubility (mg/ml) ± SD ([1]; pH 2.8 Acid Phthalate buffer USP, 37° C.) [mg/mL] | weight/moisture gained (DVS) [2] | physical stability at different temperature conditions (VT-XRD) [3] | physical stability at different relative humidity conditions (VH-XRD) [4] | solid form and particle morphology after storage ([5]; 25° C./60% RH) | solid form and particle morphology after storage ([5]; 40° C./75% RH)
1 | CC(C)[C@H](C(=O)Nc1cc(C2CC2)[nH]n1)c1cccc(-c2ccc(NC(=O)/C=C/CN3CCOCC3)nc2)c1 [Formula (I) free base, (S, E)-N-(5-(3-(1-((5-cyclopropyl-1H-pyrazol-3-yl)amino)-3-methyl-1-oxobutan-2-yl)phenyl)pyridin-2-yl)-4-morpholinobut-2-enamide] | 0.0013 ± 0.0001 | 0.065 ± 0.004 | 0.07 ± 0.004 | 0.002 ± 0.0001 | 0.0005 ± 0.0002 | – | – | – | – | – | –
2 | CC(C)[C@H](C(=O)Nc1cc(C2CC2)[nH]n1)c1cccc(-c2ccc(NC(=O)/C=C/CN3CCOCC3)nc2)c1 [Formula (I) fumarate] | 0.280 ± 0.004 | – | 0.171 ± 0.001 | 0.014 ± 0.004 | 0.014 ± 0.009 | 0.114 ± 0.017 | About 0.646 % w/w | physically stable | remained physically stable | remained unchanged | remained unchanged

Source: patent publication US20240059669A1, “COCRYSTAL OF A CDK INHIBITOR” (AURIGENE ONCOLOGY LIMITED, priority 2020, published 2024)
